Reference: patent US20230172204A1 (BASF SE, priority 2020, published 2023)

How the values were obtained:
[1] = system: Phakopsora pachyrhizi (F129L); assay: Protective control of soybean rust on soybeans (PHAKPA P6); format: in vivo; details: for % PHAKPA (F129L) Disease level P6 at 4 ppm: protective P6, 4 ppm; for % PHAKPA (F129L) Disease level P6 at 4 ppm / % PHAKPA (F129L) Disease level P6 at 16 ppm: soybean rust F129L; for % PHAKPA (F129L) Disease level P6 at 16 ppm: protective P6, 16 ppm
[2] = system: Phakopsora pachyrhizi (F129L); assay: Protective control of soybean rust on soybeans (PHAKPA P2); format: in vivo; details: for % PHAKPA (F129L) Disease level P2 at 4 ppm: protective P2, 4 ppm; for % PHAKPA (F129L) Disease level P2 at 4 ppm / % PHAKPA (F129L) Disease level P2 at 16 ppm: soybean rust F129L; for % PHAKPA (F129L) Disease level P2 at 16 ppm: protective P2, 16 ppm
[3] = P6 protective, % diseased leaf area
[4] = P2 protective, % diseased leaf area

Compound	% PHAKPA (F129L) Disease level P6 at 4 ppm [1] [%]	% PHAKPA (F129L) Disease level P6 at 16 ppm [1] [%]	% PHAKPA (F129L) Disease level P2 at 4 ppm [2] [%]	% PHAKPA (F129L) Disease level P2 at 16 ppm [2] [%]	PHAKPA (F129L) Disease level (%) P6 at 16 ppm [1, 3] [%]	PHAKPA (F129L) Disease level (%) P2 at 16 ppm [2, 4] [%]	PHAKPA (F129L) Disease level (%) P6 at 4 ppm ([1]; P6 protective, 4 ppm, % diseased leaf area) [%]	PHAKPA (F129L) Disease level (%) P2 at 4 ppm ([2]; P2 protective, 4 ppm, % diseased leaf area) [%]
C=C(C)c1cccc(/C(=N\OC)C(=O)NC)c1CO/N=C(\C)c1ccccc1 [compound 399]	90	15	67	8				
CO/N=C(/C(=O)OC)c1cccc(C)c1CO/N=C(\C)c1c(F)cc(F)cc1OC(F)(F)F [compound 361]	88	31	80	18				
CCc1cc(/C(C)=N/OCc2c(C)cccc2/C(=N\OC)C(=O)NC)cc(C(F)(F)F)c1 [compound 151]	53	6	37	3				
CNC(=O)/C(=N/OC)c1cccc(C)c1CO/N=C(/c1ccc(F)cc1)C(F)F [Ex. 27]	32	0	5	0	0	0		
CNC(=O)/C(=N/OC)c1cccc(C)c1CO/N=C(\C)c1cccc(C(F)(F)F)c1F [compound 69]	13	0	2	0				
CNC(=O)/C(=N/OC)c1cccc(C)c1CO/N=C(\C)c1ccc(C)c(Cl)c1 [compound 109]	12	0	8	1				
CO/N=C(/C(=O)OC)c1cccc(C)c1CO/N=C(\C)c1cccc(C#N)c1 [Ex. 104]	19	11	22	15	28	37		
CO/N=C(/C(=O)OC)c1ccccc1CO/N=C(\C)c1ccc(C)cc1 [reference compound]					10	25		
CO/N=C(/C(=O)OC)c1cccc(C)c1CO/N=C(\C)c1ccc(Cl)cc1C(F)(F)F [compound 304]	100	37	53	28				
CO/N=C(/C(=O)OC)c1cccc(C)c1CO/N=C(\CC1CC1)c1cccc(C(F)(F)F)c1 [compound 215]	87	33	87	37				
CNC(=O)/C(=N/OC)c1cccc(C)c1CO/N=C(\C)c1c(F)ccc(C(F)(F)F)c1NC [compound 233]	87	27	100	57				
CO/N=C(/C(=O)OC)c1cccc(C)c1CO/N=C(\C)c1ccc(OC(F)(F)F)cc1F [compound 269]	18	0	5	0				
C#Cc1cc(C#C)cc(/C(C)=N/OCc2c(C)cccc2/C(=N\OC)C(=O)NC)c1 [compound 193]	14	0	15	0				
CNC(=O)/C(=N/OC)c1cccc(C)c1CO/N=C(\C)c1ccc(-c2ccc(F)cc2)cc1C(F)(F)F [compound 426]	27	10	7	1				
CNC(=O)/C(=N/OC)c1cccc(C)c1CO/N=C(\C)c1ccc(Br)cc1 [compound 168]	5	0	2	0				
CO/N=C(/C(=O)OC)c1cccc(C)c1CO/N=C(\C)c1ccc(OC)cc1C(F)(F)F [compound 328]	23	5	33	8				
CNC(=O)/C(=N/OC)c1ccccc1CO/N=C(\C)c1ccccc1 [reference compound]							100	87
CNC(=O)/C(=N/OC)c1cccc(C)c1CO/N=C(\C)c1ccccc1C1CC1(F)F (stereo not drawn) [compound 288]	97	20	87	30				
